Experiment [1] is described as follows: viability loss in HeLa cells – cytotoxicity control for MgcRacGAP inhibitor project, dose response (AID 624300). The format is functional.
The target in a further experiment is Large T antigen (Simian virus 40, UniProt P03070). The format is functional, Betapolyomavirus macacae.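 Note: Confirmatory-stage PubChem screen for compounds that inhibit SV40 T antigen.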
In experiment [2] the target is T1, Rac GTPase-activating protein 1 (Homo sapiens, UniProt Q9H0H5).
T1 sequence (Q9H0H5 whole entry): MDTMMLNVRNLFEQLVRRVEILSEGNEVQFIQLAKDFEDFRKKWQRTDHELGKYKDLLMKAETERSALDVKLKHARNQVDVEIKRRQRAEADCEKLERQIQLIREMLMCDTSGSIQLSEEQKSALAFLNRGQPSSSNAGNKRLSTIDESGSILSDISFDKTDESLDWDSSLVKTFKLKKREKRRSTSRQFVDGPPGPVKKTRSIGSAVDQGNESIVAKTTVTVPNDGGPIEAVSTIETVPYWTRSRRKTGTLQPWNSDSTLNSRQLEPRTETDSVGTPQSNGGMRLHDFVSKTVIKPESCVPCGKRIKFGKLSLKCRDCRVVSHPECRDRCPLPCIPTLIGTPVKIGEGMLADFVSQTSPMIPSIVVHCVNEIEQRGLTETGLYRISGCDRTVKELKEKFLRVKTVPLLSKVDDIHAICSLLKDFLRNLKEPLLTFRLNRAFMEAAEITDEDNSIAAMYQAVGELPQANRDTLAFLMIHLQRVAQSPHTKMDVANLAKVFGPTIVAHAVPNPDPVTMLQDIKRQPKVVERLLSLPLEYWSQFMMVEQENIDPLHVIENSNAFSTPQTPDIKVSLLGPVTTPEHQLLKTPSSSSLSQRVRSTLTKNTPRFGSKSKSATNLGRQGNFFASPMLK
As to the kind of experiment: blockers of MgcRacGAP-driven Rac1 GTP hydrolysis – biochemical, ADP Hunter fluorescence, primary and confirmatory, confirmation (AID 624330). It counts as functional.

Experiment [3] has as its target Luciferin 4-monooxygenase (Photinus pyralis, UniProt P08659). As to the kind of experiment: inhibition of purified Photinus pyralis luciferase – biochemical, luminescence, dose response (AID 1891).
A short description of experiment [4]: Luminescence Cell-Based Dose Confirmation HTS to Identify Inhibitors of Platelet Dense Granule Release. [Related pubchem assays: 1663 (Primary HTS), 1678 (Summary of Project)]. The format is functional.
In experiment [5] the target is T2, DNA repair and recombination protein RAD54-like (Homo sapiens, UniProt Q92698).
T2 sequence (Q92698 whole entry): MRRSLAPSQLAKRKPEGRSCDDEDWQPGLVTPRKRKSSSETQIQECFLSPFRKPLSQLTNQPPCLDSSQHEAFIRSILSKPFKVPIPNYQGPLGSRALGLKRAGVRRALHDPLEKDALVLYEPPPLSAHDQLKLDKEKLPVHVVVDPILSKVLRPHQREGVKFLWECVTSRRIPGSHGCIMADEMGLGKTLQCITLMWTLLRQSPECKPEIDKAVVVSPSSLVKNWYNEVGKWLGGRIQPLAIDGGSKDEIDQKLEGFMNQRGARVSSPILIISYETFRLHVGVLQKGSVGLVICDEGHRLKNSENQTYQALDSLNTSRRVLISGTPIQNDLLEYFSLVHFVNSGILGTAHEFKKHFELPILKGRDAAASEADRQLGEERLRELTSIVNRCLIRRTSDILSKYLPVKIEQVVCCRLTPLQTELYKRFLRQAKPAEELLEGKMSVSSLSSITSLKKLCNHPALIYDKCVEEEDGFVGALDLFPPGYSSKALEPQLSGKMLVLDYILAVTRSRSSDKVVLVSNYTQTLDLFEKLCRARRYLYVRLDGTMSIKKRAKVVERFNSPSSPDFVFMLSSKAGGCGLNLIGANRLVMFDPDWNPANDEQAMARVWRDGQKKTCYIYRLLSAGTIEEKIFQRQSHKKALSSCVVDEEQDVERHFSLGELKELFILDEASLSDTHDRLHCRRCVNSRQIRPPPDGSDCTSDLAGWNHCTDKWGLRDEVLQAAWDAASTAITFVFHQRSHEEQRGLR
Briefly: RAD54 Holliday junction migration blockers – biochemical, fluorescence, cherry-picked samples, dose series, confirmation (AID 651657). It counts as functional.

A short description of experiment [6]: activation of miR-122 Renilla sensor silencing – cell-based, Huh7 psiCHECK-miR122, Renilla luciferase, cherry-picked, dose response (AID 651956).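 Note: huh7 hepatoma cells stably carrying a psiCHECK-2 miR-122 sensor plasmid; renilla luciferase signal reporting endogenous miR-122 activity after 48 h compound exposure.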 It counts as functional.
Experiment [7] addresses 5-hydroxytryptamine receptor 2A (Mus musculus, UniProt P35363). It counts as functional, cell-based.
The next experiment has as its target Mu-type opioid receptor (Homo sapiens, UniProt P35372). It counts as functional, cell-based.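 Note: U2OS cells with beta-arrestin recruitment to OPRM1 by beta-gal complementation.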
In experiment [8] the target is T3, Long-chain-fatty-acid--AMP ligase FadD28 (Mycobacterium tuberculosis, UniProt P9WQ59).
T3 sequence (P9WQ59 whole entry): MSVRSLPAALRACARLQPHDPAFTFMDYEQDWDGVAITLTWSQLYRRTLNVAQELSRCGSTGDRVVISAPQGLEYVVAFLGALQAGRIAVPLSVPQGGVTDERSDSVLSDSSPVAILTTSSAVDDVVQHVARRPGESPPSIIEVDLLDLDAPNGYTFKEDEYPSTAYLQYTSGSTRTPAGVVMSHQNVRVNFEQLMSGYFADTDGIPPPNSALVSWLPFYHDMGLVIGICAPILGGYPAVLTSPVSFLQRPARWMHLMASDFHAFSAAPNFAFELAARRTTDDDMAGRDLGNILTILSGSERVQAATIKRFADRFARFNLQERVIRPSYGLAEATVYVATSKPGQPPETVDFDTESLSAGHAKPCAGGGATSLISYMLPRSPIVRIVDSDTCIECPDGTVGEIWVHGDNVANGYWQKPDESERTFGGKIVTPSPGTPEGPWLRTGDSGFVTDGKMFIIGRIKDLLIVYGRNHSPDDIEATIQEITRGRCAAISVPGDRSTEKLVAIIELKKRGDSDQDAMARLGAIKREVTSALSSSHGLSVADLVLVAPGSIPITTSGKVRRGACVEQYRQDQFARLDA
As to the kind of experiment: Fluorescence polarization aasay to screen for inhibitors that compete for the binding of FadD28 to a bisubstrate Measured in Biochemical System Using Plate Reader - 2147-01_Inhibitor_Dose_CherryPick_Activity. It counts as functional, Mycobacterium tuberculosis H37Rv. Background: In fluorescence polarisation assays a small probe gives low polarisation when free and higher when bound to something large.

In another experiment the target is Albumin (Bos taurus, UniProt P02769). As to the kind of experiment: Counterscreen for inhibitors of T-cell receptor (TCR)-CD3 interaction: Fluorescence-based biochemical high throughput dose response assay to identify inhibitors of T-cell receptor (TCR)-CD3 interaction using a TAMRA-labeled BSA probe. It counts as functional. For orientation: Counterscreens check selectivity or assay interference.
Albumin, sequence (P02769 whole entry): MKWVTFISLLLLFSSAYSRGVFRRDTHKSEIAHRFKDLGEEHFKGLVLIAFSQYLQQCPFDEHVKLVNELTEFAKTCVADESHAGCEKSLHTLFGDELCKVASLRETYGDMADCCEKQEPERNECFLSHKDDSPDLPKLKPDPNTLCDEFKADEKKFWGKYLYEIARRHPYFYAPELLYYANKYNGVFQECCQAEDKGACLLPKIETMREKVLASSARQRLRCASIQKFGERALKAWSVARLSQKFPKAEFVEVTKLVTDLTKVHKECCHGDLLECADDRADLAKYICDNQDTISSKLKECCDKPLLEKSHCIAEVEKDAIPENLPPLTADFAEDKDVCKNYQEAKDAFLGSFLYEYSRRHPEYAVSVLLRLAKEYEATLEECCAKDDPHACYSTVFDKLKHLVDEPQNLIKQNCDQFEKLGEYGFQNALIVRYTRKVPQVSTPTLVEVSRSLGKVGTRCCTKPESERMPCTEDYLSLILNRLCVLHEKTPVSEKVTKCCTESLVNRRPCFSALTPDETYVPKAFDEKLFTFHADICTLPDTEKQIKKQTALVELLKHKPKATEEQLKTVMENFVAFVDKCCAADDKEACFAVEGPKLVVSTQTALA

Experiment [9] is described as follows: NIH-3T3 fibroblast cytotoxicity, dose response, cytotoxicity control, cell-based, fluorescence, Alamar Blue, secondary assay (AID 2327).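 Note: NIH-3T3 mouse fibroblasts cultured with fluconazole at 8 µg/mL.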 It counts as functional.
In experiment [10] the target is T4, Fructose-bisphosphate aldolase (Mycobacterium tuberculosis, UniProt P9WQA3).
T4 sequence (P9WQA3 whole entry): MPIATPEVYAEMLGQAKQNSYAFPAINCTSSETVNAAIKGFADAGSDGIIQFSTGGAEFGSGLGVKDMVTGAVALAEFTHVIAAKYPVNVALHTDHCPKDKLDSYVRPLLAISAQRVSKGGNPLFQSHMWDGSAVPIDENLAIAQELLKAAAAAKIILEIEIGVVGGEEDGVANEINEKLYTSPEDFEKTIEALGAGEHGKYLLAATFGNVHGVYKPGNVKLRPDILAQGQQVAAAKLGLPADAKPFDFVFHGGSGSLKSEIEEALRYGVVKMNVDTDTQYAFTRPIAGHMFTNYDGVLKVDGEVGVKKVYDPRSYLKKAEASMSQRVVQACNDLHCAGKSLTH
As to the kind of experiment: Fluorescence-based biochemical high throughput dose response assay for inhibitors of the fructose-bisphosphate aldolase (FBA) of M. tuberculosis. The format is functional.

Experiment [11] in a line: fluconazole-exposed Candida albicans growth modulators – fluorescence, retest, confirmation (AID 2467). The format is functional, cell-based.

The source made the active and inactive calls.

Mu-type opioid receptor, sequence (P35372 whole entry): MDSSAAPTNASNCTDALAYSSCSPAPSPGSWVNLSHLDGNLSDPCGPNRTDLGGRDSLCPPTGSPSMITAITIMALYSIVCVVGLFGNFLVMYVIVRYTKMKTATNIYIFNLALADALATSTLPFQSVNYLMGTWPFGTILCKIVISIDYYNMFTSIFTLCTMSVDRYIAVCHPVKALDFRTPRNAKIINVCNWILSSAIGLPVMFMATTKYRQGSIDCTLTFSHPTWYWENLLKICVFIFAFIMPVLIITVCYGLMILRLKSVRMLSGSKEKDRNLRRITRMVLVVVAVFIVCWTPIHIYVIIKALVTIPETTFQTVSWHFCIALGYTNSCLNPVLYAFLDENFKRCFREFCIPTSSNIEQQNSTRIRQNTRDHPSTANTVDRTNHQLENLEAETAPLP
5-hydroxytryptamine receptor 2A, sequence (P35363 whole entry): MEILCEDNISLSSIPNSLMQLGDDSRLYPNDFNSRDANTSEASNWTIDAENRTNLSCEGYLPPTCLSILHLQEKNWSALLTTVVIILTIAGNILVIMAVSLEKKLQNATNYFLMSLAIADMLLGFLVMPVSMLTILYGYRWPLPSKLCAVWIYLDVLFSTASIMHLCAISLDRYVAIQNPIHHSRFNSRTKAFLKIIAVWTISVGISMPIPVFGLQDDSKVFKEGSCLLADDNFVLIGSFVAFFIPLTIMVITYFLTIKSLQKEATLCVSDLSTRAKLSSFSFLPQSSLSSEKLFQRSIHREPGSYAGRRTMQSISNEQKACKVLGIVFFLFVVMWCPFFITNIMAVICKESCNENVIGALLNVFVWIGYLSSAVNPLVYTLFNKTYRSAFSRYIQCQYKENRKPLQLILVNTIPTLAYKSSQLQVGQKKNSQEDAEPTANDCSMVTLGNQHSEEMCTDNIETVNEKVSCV
Large T antigen, sequence (P03070 whole entry): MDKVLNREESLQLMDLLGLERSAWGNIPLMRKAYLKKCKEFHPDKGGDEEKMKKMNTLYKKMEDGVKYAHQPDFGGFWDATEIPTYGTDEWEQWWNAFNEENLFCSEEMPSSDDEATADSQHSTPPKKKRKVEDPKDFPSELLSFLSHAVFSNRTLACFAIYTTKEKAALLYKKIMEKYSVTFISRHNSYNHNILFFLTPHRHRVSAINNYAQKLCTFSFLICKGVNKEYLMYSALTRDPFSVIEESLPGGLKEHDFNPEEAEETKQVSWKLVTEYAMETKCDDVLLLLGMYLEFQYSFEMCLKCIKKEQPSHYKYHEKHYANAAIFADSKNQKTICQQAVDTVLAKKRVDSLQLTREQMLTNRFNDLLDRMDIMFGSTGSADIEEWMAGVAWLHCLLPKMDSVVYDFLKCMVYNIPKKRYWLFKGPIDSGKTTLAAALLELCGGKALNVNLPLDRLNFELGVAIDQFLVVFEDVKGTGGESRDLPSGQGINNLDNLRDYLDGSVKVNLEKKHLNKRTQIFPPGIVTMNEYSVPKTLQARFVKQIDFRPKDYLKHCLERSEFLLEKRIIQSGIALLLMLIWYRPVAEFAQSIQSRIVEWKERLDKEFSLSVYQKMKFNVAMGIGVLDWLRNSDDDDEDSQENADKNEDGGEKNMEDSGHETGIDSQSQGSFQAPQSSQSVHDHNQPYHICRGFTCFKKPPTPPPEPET
Luciferin 4-monooxygenase, sequence (P08659 whole entry): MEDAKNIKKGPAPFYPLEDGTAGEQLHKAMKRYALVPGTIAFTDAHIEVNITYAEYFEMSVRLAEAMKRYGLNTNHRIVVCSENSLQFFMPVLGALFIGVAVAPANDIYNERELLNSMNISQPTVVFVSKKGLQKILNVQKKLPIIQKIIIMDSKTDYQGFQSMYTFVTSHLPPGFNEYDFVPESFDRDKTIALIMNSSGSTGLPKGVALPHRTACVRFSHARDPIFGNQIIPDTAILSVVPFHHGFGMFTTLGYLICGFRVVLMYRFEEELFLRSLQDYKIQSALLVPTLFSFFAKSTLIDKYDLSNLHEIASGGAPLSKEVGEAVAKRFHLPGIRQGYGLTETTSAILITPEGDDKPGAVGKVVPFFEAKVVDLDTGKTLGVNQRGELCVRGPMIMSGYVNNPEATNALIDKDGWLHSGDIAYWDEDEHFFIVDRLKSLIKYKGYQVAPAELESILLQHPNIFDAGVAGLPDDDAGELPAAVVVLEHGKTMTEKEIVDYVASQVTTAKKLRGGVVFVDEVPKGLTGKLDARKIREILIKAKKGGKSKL

`COc1cc(/C=N/Nc2nncn2/N=C/c2ccc(O)c(OC)c2)ccc1O`: in [1], the CC50 was 10.7 µM (active). The IC50 at Large T antigen is 12.9 µM (active); in experiment [2], 43.6 µM (active). The EC50 in experiment [3] is 0.658 µM (active); in experiment [4], 2.63 µM (active).

As to `CN1CCN(c2ccc(CNC(=O)C3Cc4c(-c5ccc(Cl)cc5)ccnc4O3)cc2)CC1` (stereo not drawn), the AC50 in experiment [5] was 72.1 µM (active).

For `CC(C)CC#Cc1ccc2c(c1)O[C@H](CN(C)C(=O)c1cnccn1)[C@H](C)CN([C@@H](C)CO)S2(=O)=O`, the AC50 in [6] is 10.5 µM (active).

For `CNC(=O)Oc1ccc(-c2cn3cc(C)ccc3n2)cc1`, the CC50 in experiment [1] was 100 µM (active).

Take `COc1cccc(OC)c1OCCN1CCN(C(=O)c2ccco2)CC1`: the EC50 in experiment [7] was 3.12 µM (active); at Mu-type opioid receptor, 92.4 µM (inactive).

`CN(C)S(=O)(=O)c1cccc(NC(=O)CCc2c[nH]c3ccccc23)c1`: the AC50 in experiment [8] was 97.9 µM (active).

On to `CCOc1ccc(NC(=O)NNC(=O)c2ccc3ccccc3c2O)cc1`, for which the IC50 on Albumin was > 94.1 µM (inactive); in experiment [10], 3.15 µM (active). Further, the EC50 in [9] was > 150 µM (inactive); in experiment [11] it was 2.58 µM (active).

Turning to `CN(C)C(=O)c1ccc(-c2ccc([C@H]3[C@@H](CO)N4CCCCN(C(=O)C5CCCC5)C[C@@H]34)cc2)cc1`, in [6], the AC50 was 49 µM (active).

For `Cc1cccc(N2CCN(CC(O)COc3ccc4ccccc4c3)CC2)c1` (stereo not drawn), the results for the EC50 (in experiment [7]; at Mu-type opioid receptor) were 76 µM (inactive) and 92.4 µM (inactive), respectively.

Turning to `CC(=O)NC(CC(=O)NNC(=O)c1cc2ccccc2cc1O)c1ccccc1` (stereo not drawn), the IC50 on Albumin is > 94.1 µM (inactive). For the same molecule, the EC50 in experiment [9] is > 160 µM (inactive); in [11], > 38 µM (not active).

Take `Cc1nc(-c2nc(-c3c(C(=O)NNC(=O)Nc4cccc(Cl)c4)noc3C)cs2)cs1`: the values for the 50% effective concentration (EC50) (in experiment [7]; at Mu-type opioid receptor) were 6.23 µM (active) and 92.5 µM (inactive), respectively.

For orientation: CC50 means the concentration giving 50% cytotoxicity. Usually IC50 stands for the midpoint of a concentration-inhibition curve. In general, EC50 refers to the concentration needed to bring the measured effect to its halfway point. What is called AC50 is the midpoint of the concentration-response curve, whichever way the signal moves.

The values above are taken from ChEMBL document CHEMBL1201862, “PubChem BioAssay data set” (2004).
